According to US20230123334A1, “AMINO LIPID COMPOUND, PREPARATION METHOD THEREFOR, AND APPLICATION THEREOF” (SHENZHEN SHENXIN BIOTECHNOLOGY CO., LTD., priority 2020, published 2023):

Assays:
HEK293 cells [1] = test: Preliminary screening as DNA vectors, GFP transfection of HEK293 cells; type: cell-based; settings: HEK293 cells; lipid/DOPE liposome with 75 ng plasmid DNA (psin-EGFP-IRES-Puro); number of cells expressing GFP divided by total number of nuclei (Hoechst)
Method in brief: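 First, amino lipid and DOPE were vortexed in sodium acetate buffer (pH 5.6) to form liposomes. Next, these were held with 75 ng EGFP plasmid at room temperature for 30 min. Finally, HEK293 cells were added, cultured at 37° C., Hoechst-stained, and GFP+/total nuclei scored by imaging.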

HEK293 cells [2] = test: Preliminary screening as mRNA vectors, EGFP mRNA transfection of HEK293 cells; type: cell-based; settings: HEK293 cells, 96-well plates, EGFP mRNA 50 ng per well; percentage of GFP fluorescent cells relative to total number of cells (Hoechst)
Method in brief: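 Screening format: EGFP mRNA transfection (50 ng/well) into HEK293 in 10% FBS-supplemented DMEM. Percent green fluorescent cells, normalised to Hoechst nuclear count, gave the value; Lipofectamine2000 was the reference transfectant.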

Row | SMILES | Absolute DNA transfection efficiency in HEK293 cells (HEK293 cells [1]) [%] | Absolute mRNA transfection efficiency in HEK293 cells (HEK293 cells [2]) [%]
1 | CCCCCCCCCCCCCCCCCCSc1nc(NCCN2CCCC2)nc(SCCCCCCCCCC)n1 [Compound S10S18D3] | 11.1 | 21.5
2 | CCCCCCCCCCCNc1nc(NCCCCCCCC)nc(NCCN(C)C)n1 [Compound N8N11D1] | 0.4 | 0.0
3 | CCCCCCCCCCCCCCCCCCNc1nc(NCCCCCCCC)nc(NCCN2CCN(C)CC2)n1 [Compound N8N18D5] | 1.9 | 0.9
4 | CCCCCCCCCCCCCCSc1nc(NCCN2CCCCC2)nc(SCCCCCCCCCCCCCC)n1 [Compound S14S14D4] | 0.7 | 0.8
5 | CCCCCCCCCCCNc1nc(NCCCCCCCCCCC)nc(NCCN2CCN(C)CC2)n1 [Compound N11N11D5] | 0.9 | 0.4
6 | CCCCCCCCCCCCCCCCSc1nc(NCCN2CCN(C)CC2)nc(SCCCCCCCC)n1 [Compound S8S16D5] | 3.7 | 20.5
7 | CCCCCCCCCCCCCCCCCCNc1nc(NCCCCCC)nc(NCC2CCN(C)CC2)n1 [Compound N6N18D10] | 0.4 | 0.1
8 | CCCCCCCCCCCCCCCNc1nc(NCCCCCCCCC)nc(NCCN2CCCC2)n1 [Compound N9N15D3] | 0.5 | 4.7
9 | CCCCCCCNc1nc(NCCCCCC)nc(NCCN(CC)CC)n1 [Compound N6N7D7] | 0.0 | 0.0
10 | CCCCCCCCCCCCCCSc1nc(NCCCN2CCOCC2)nc(SCCCCCCCCCC)n1 [Compound S10S14D8] | 18.9 | 7.5
11 | CCCCCCCCCCCCCCCCNc1nc(NCCCCCCCCCCC)nc(NCCN2CCN(C)CC2)n1 [Compound N11N16D5] | 0.0 | 2.5
12 | CCCCCCCCCCCCSc1nc(NCC2CCN(C)CC2)nc(SCCCCCCCCCCC)n1 [Compound S11S12D10] | 4.8 | 10.5
13 | CCCCCCCCCCCCCCCNc1nc(NCCCCCCCCC)nc(NCCN2CCN(C)CC2)n1 [Compound N9N15D5] | 0.2 | 1.8
14 | CCCCCCCCCCCCCCCNc1nc(NCCCCCCCCC)nc(NCCCN2CCN(C)CC2)n1 [Compound N9N15D9] | 0.9 | 1.1
15 | CCCCCCCCCCCCCCSc1nc(NCCN(CC)CC)nc(SCCCCCCCCCC)n1 [Compound S10S14D7] | 2.6 | 1.3
16 | CCCCCCCCCCCNc1nc(NCCCCCCC)nc(NCC2CCN(C)CC2)n1 [Compound N7N11D10] | 0.7 | 0.2
17 | CCCCCCCCCCCCCCCCSc1nc(NCCN2CCOCC2)nc(SCCCCCCCCCCCCCCCC)n1 [Compound S16S16D2] | 1.1 | 0.2
18 | CCCCCCNc1nc(NCCCCCC)nc(NCCN(C)C)n1 [Compound N6N6D1] | 0.0 | 0.0
19 | CCCCCCCCCCCCCCSc1nc(NCCCN2CCOCC2)nc(SCCCCCCCCCCCCCC)n1 [Compound S14S14D8] | 0.0 | 0.0

Row | SMILES | Absolute DNA transfection efficiency in HEK293 cells (HEK293 cells [1]) [%] | Absolute mRNA transfection efficiency in HEK293 cells (HEK293 cells [2]) [%]
20 | CCCCCCCCCCCSc1nc(NCCCN(C)C)nc(SCCCCCCCCCCC)n1 [Compound S11S11D6] | 10.9 | 25.4
21 | CCCCCCCCCCCCN(CCCCCCCCCCCC)c1nc(NCCCCCC)nc(NCCCN2CCN(C)CC2)n1 [N6^2N12D9] | 0.0 | 0.0
22 | CCCCCCCCCCCCN(CCCCCCCCCCCC)c1nc(NCCCCCCC)nc(NCC2CCN(C)CC2)n1 [N7^2N12D10] | 1.4 | 2.0
23 | CCCCCCCCCCCCCCCCCCNc1nc(NCCCCCCCCC)nc(NCCN2CCCC2)n1 [Compound N9N18D3] | 2.0 | 4.7
24 | CCCCCCCCCCCCCNc1nc(NCCCCCC)nc(NCCCN(C)C)n1 [Compound N6N13D6] | 0.1 | 0.1
25 | CCCCCCCCCCCCCCCCCCSc1nc(NCCN2CCCCC2)nc(SCCCCCCCCCCCC)n1 [Compound S12S18D4] | 2.6 | 5.1
26 | CCCCCCCCNc1nc(NCCCCCCCC)nc(NCCCN(C)C)n1 [Compound N8N8D6] | 0.0 | 0.0
27 | CCCCCCCCCCCCCCCCCCNc1nc(NCCCCCC)nc(NCCN2CCCC2)n1 [Compound N6N18D3] | 3.4 | 3.9
28 | CCCCCCCCCCCCCCCCNc1nc(NCCCCCCCCCCCCC)nc(NCCN2CCOCC2)n1 [Compound N13N16D2] | 0.0 | 1.4
29 | CCCCCCCCCCCCCCSc1nc(NCCN2CCN(C)CC2)nc(SCCCCCCCCCCCC)n1 [Compound S12S14D5] | 0.2 | 3.6
30 | CCCCCCCCCCCCCCCCSc1nc(NCC2CCN(C)CC2)nc(SCCCCCCCCCCC)n1 [Compound S11S16D10] | 49.0 | 89.2
31 | CCCCCCCCCCCCCNc1nc(NCCCCCCCCC)nc(NCCN(CC)CC)n1 [Compound N9N13D7] | 0.0 | 0.3
32 | CCCCCCCCCCCCSc1nc(NCCN(C)C)nc(SCCCCCCCCCCC)n1 [Compound S11S12D1] | 2.3 | 4.7
33 | CCCCCCCCCCCCCNc1nc(NCCCCCCCCCCCC)nc(NCCN(C)C)n1 [Compound N12N13D1] | 1.2 | 1.6
34 | CCCCCCCCCCCCCCCSc1nc(NCCN2CCCCC2)nc(SCCCCCCCC)n1 [Compound S8S15D4] | 11.2 | 2.6
35 | CCCCCCCCCCCCCCCCCCNc1nc(NCCCCCCC)nc(NCCN2CCN(C)CC2)n1 [Compound N7N18D5] | 0.7 | 0.1
36 | CCCCCCCCCCCCCCCSc1nc(NCCCN2CCN(C)CC2)nc(SCCCCCCCCCC)n1 [Compound S10S15D9] | 3.9 | 3.8
37 | CCCCCCCCCCCCNc1nc(NCC2CCN(C)CC2)nc(N(CCCCCCCCCCCC)CCCCCCCCCCCC)n1 [N12^2N12D10] | 0.7 | 0.9
